# Where “and” joins values, the source holds several entries; their conditions need not be identical. Equal entries are not always repeated. Marks after values point to notes of the source that are not given here.
# How the values were obtained:
# C. krusei (14243) = experiment: MIC and checkerboard synergy with azoles; type: cell-based, Candida krusei
# Description: (§1) For susceptibility studies, overnight cultures of both Candida species are diluted 1:100 in YEPD medium, grown for 4 h at 30° C., counted in a hemocytometer, then diluted to a concentration of 5×10^3 cells/ml. […] Synergy, determined by the checkerboard method, is defined as a decrease in MIC of antifungal agent that is more than additive of the MIC of the histone deacetylase inhibitor and the antifungal agent alone.
# Coccidioides immitis = experiment: microbe, parasite or virus in culture; type: cell-based
# C. albicans = experiment: Immunocompromised mouse model of systemic candidiasis; type: in vivo; conditions: compound 4 at 2-10 mg/kg i.p. daily with ketoconazole 20 mg/kg i.p. daily, 7 days; immunocompromised mice; FIG. 4
# Description: The standard method for the mouse candidiasis studies is as follows. Female CD-1 mice are immunocompromised by injecting 240 mg/kg cyclophosphamide on day -3 then 80 mg/kg cyclophosphamide on days 1 and 5. C. albicans is grown in Sabouraud agar, cells are resuspended in 0.9% saline and counted in a hemacytometer. […] Mice are treated with ketoconazole +/− test compound daily for seven days, starting one day after the infection. They are monitored daily for weight loss and death. Mice are sacrificed on day 8 and the kidneys are removed and homogenized and fungal load (CFU) per pair of kidneys determined.
# C. glabrata [1] = experiment: Post-antifungal effect (PAFE); type: cell-based
# Description: The post-antifungal effect (PAFE) is the time needed to achieve one log10 of cell growth after drug removal. One-two colonies are resuspended in 5 ml YPD. […] Cells are incubated at 30° C. overnight. In the morning, the optical density at 600 nm is read. Cells at A600 the closest but not surpassing 0.3 (early log-phase cells) are picked for further treatments as follows: […] Counts of CFU/ml are performed at time zero, before and after diluting the cells and at predetermined time points in order to determine the PAFE and the cidal potential of each drug combination (FIGS. 5-10).
# C. parapsilosis (22019) = experiment: MIC and checkerboard synergy with azoles; type: cell-based, Candida parapsilosis
# Description: as §1
# Aspergillus fumigatus = experiment: Clinical isolates of other fungal species, checkerboard; type: cell-based
# Candida spp. = experiment: Clinical isolates, checkerboard, summary over 45 isolates; type: cell-based; conditions: for isolates with synergy / isolates tested: 45 clinical isolates of Candida spp.
# Paecilomyces lilacinus = experiment: Clinical isolates of other fungal species, checkerboard; type: cell-based
# C. krusei = experiment: Clinical isolates, CLSI M27-A2 broth microdilution and checkerboard; type: cell-based; conditions: for minimum Compound 4 concentration at which Compound 4 alone inhibited growth (number in brackets): C. krusei clinical isolates
# C. parapsilosis = experiment: Fungicidal activity (CFU counts); type: cell-based; conditions: voriconazole with Compound 4, data not shown
# HDAC [2] = experiment: HDAC inhibitory activity in fungal protoplasts (Fluor-de-Lys); type: cell-based, Candida albicans; conditions: C. albicans protoplasts
# Description: (§2) Protoplasts of C. albicans and C. glabrata are prepared by the […] method of Franzusoff et al.
# C. tropicalis (750) = experiment: MIC and checkerboard synergy with azoles; type: cell-based, Candida tropicalis
# Description: as §1
# Aspergillus spp. = experiment: Clinical isolates, checkerboard, summary over 16 isolates; type: cell-based
# Pseudallescheria boydii = experiment: Clinical isolates of other fungal species, checkerboard; type: cell-based
# C. albicans (ATCC 90028) = experiment: MIC80 and checkerboard synergy with antifungal agents; type: cell-based, Candida albicans; conditions: for Conc. Cpd 4 for 4-fold decrease: C. albicans; for Cpd 4 Conc for 4-fold synergy: C. albicans (90028)
# Trichosporon = experiment: Clinical isolates of other fungal species, checkerboard; type: cell-based
# C. tropicalis = experiment: Fungicidal activity (CFU counts); type: cell-based; conditions: voriconazole with Compound 4, data not shown
# C. glabrata (ATCC 90030) = experiment: MIC80 and checkerboard synergy with antifungal agents; type: cell-based, Candida glabrata; conditions: for Cpd 4 Conc for 4-fold synergy: C. glabrata (90030)
# A. niger = experiment: Clinical isolates, CLSI M38-A broth microdilution and checkerboard; type: cell-based
# C. glabrata [3] = experiment: Clinical isolates, CLSI M27-A2 broth microdilution and checkerboard; type: cell-based
# HDAC [4] = experiment: HDAC inhibitory activity in fungal protoplasts (Fluor-de-Lys); type: cell-based, Candida glabrata; conditions: C. glabrata protoplasts
# Description: as §2
# Histoplasma = experiment: microbe, parasite or virus in culture; type: cell-based
# [5] = Paecilomyces lilacinus, *Synergy occurs at ½ MIC of Cpd 4
# [6] = Aspergillus spp. clinical isolates
# [7] = Trichosporon, **MIC of azole <0.06 μg/ml, too low to determine synergistic concentration
structure (smiles),measurement,setting,value
O=C(Cc1ccc(CCCCc2ccccc2)cc1)NO [Cpd 4],MIC,"C. krusei (14243); Pichia kudriavzevii, read-out: Cpd 4 MIC",3.1 to 6.3 µg/mL
same,Cpd 4 Conc for 4-fold synergy,C. krusei (14243); with itraconazole,0.39 µg/mL
same,Cpd 4 Conc for 4-fold synergy,C. krusei (14243); with ketoconazole,0.39 µg/mL
same,Cpd 4 Conc for 4-fold synergy,C. krusei (14243); with voriconazole,0.39 µg/mL
same,Synergy with Cpd 4 (strains showing synergy/total strains tested) Voriconazole,Coccidioides immitis,0/3**
same,Synergy with Cpd 4 (strains showing synergy/total strains tested) Itraconazole,Coccidioides immitis; Coccidioides immitis,2/3
same,MIC,"Coccidioides immitis; Coccidioides immitis, read-out: Cpd 4 MIC",0.25 µg/mL
same,"effect on the activity of ketoconazole (fungal load, CFU per pair of kidneys)",C. albicans,"enhancing (i.e., synergistic) effect"
same,PAFE,"C. glabrata [1]; Compound 4 combined with voriconazole, FIGS. 5 and 6C",~1 h
same,PAFE,"C. glabrata [1]; itraconazole combined with Compound 4, FIG. 7",0.5 h
same,MIC,"C. parapsilosis (22019); Lodderomyces parapsilosis, read-out: Cpd 4 MIC",0.39 to 0.78 µg/mL
same,Cpd 4 Conc for 4-fold synergy,C. parapsilosis (22019); with ketoconazole,0.2 µg/mL
same,Cpd 4 Conc for 4-fold synergy,C. parapsilosis (22019); with voriconazole,0.049 µg/mL
same,MIC,"Aspergillus fumigatus; Aspergillus fumigatus clinical isolates, read-out: Cpd 4 MIC",4 to 8 µg/mL
same,Synergy with Cpd 4 (strains showing synergy/total strains tested) Itraconazole,"Aspergillus fumigatus; Aspergillus fumigatus, *Synergy occurs at ½ MIC of Cpd 4",2/3*
same,Synergy with Cpd 4 (strains showing synergy/total strains tested) Voriconazole,"Aspergillus fumigatus; Aspergillus fumigatus, †2-fold synergy obtained",2/3^†
same,in vitro antagonism of Compound 4-azole combination,Candida spp.; Candida spp. clinical isolates,none of the isolates tested
same,isolates with synergy / isolates tested,Candida spp.; Compound 4 with FLU,34/45
same,isolates with synergy / isolates tested,Candida spp.; Compound 4 with VOR,37/45
same,Synergy with Cpd 4 (strains showing synergy/total strains tested) Itraconazole,Paecilomyces lilacinus; [5],2/3*
same,Synergy with Cpd 4 (strains showing synergy/total strains tested) Voriconazole,Paecilomyces lilacinus; [5],2/3*
same,MIC,"Paecilomyces lilacinus; Purpureocillium lilacinum, Paecilomyces lilacinus clinical isolates, read-out: Cpd 4 MIC",4 µg/mL
same,FLU/Cpd 4 FIC interpretation,"C. krusei; Cpd 4 with fluconazole, C. krusei clinical isolates and QC 6258",(S) (S = synergy)
same,VOR/Cpd 4 FIC,"C. krusei; Cpd 4 with voriconazole, C. krusei clinical isolates and QC 6258",0.6 and 0.5 and 0.3
same,minimum Compound 4 concentration at which Compound 4 alone inhibited growth (number in brackets),C. krusei; FLU checkerboard,0.5 µg/mL
same,minimum Compound 4 concentration at which Compound 4 alone inhibited growth (number in brackets),C. krusei; VOR checkerboard,0.25 µg/mL and 0.5 µg/mL
same,increase in voriconazole fungicidal activity,C. parapsilosis,1.1-1.2 fold
same,HDAC inhibition IC50,HDAC [2],>20 µg/mL
same,MIC,"C. tropicalis (750); Candida tropicalis, read-out: Cpd 4 MIC",> 50 µg/mL
same,Cpd 4 Conc for 4-fold synergy,C. tropicalis (750); with itraconazole,0.2 µg/mL
same,Cpd 4 Conc for 4-fold synergy,C. tropicalis (750); with ketoconazole,0.2 µg/mL
same,Cpd 4 Conc for 4-fold synergy,C. tropicalis (750); with voriconazole,0.39 µg/mL
same,Compound 4 concentrations required for 4-fold reductions in azole MIC,Aspergillus spp.; [6],1 to 8 µg/mL
same,in vitro antagonism of Compound 4-azole combination,Aspergillus spp.; [6],none of the isolates tested
same,number of isolates with additivity,"Aspergillus spp.; Compound 4 with VOR and ITR, of 16 Aspergillus spp. isolates",4
same,number of isolates with synergy,"Aspergillus spp.; Compound 4 with both VOR and ITR, of 16 Aspergillus spp. isolates",11
same,Synergy with Cpd 4 (strains showing synergy/total strains tested) Itraconazole,Pseudallescheria boydii; Pseudallescheria boydii,0/3
same,Synergy with Cpd 4 (strains showing synergy/total strains tested) Voriconazole,Pseudallescheria boydii; Pseudallescheria boydii,0/3
same,MIC,"Pseudallescheria boydii; Scedosporium boydii, Pseudallescheria boydii clinical isolates, read-out: Cpd 4 MIC",2 µg/mL
same,Conc. Cpd 4 for 4-fold decrease,C. albicans (ATCC 90028); 4-fold decrease of nikkomycin MIC,1.563 µg/mL
same,Conc. Cpd 4 for 4-fold decrease,C. albicans (ATCC 90028); 4-fold decrease of terbinafine MIC,0.78 µg/mL
same,MIC,"C. albicans (ATCC 90028); Candida albicans, ATCC90028, compound alone, C. albicans (ATCC 90028), read-out: MIC80",0.8 µg/mL
same,Cpd 4 Conc for 4-fold synergy,C. albicans (ATCC 90028); with itraconazole,0.024 µg/mL
same,Cpd 4 Conc for 4-fold synergy,C. albicans (ATCC 90028); with voriconazole,0.39 µg/mL
same,MIC,"Trichosporon; Trichosporon clinical isolates, read-out: Cpd 4 MIC",0.125 to 0.5 µg/mL
same,Synergy with Cpd 4 (strains showing synergy/total strains tested) Itraconazole,Trichosporon; [7],1/3**
same,Synergy with Cpd 4 (strains showing synergy/total strains tested) Voriconazole,Trichosporon; [7],0/3**
same,increase in voriconazole fungicidal activity,C. tropicalis,1.1-1.2 fold
same,Conc. Cpd 4 for 4-fold decrease,"C. glabrata (ATCC 90030); 4-fold decrease of fenpropimorph MIC, C. glabrata",0.78 µg/mL
same,MIC,"C. glabrata (ATCC 90030); Nakaseomyces glabratus, ATCC90030, compound alone, C. glabrata (ATCC 90030), read-out: MIC80",6.25 µg/mL
same,concentration at which Compound 4 synergizes with fenpropimorph,C. glabrata (ATCC 90030); against C. glabrata,2 µg/mL
same,Cpd 4 Conc for 4-fold synergy,C. glabrata (ATCC 90030); with itraconazole,0.2 µg/mL
same,Cpd 4 Conc for 4-fold synergy,C. glabrata (ATCC 90030); with ketoconazole,0.25 µg/mL
same,Cpd 4 Conc for 4-fold synergy,C. glabrata (ATCC 90030); with voriconazole,0.39 µg/mL
same,ITR/Cpd 4 FIC,A. niger; Cpd 4 with itraconazole,0.5
same,VOR/Cpd 4 FIC,A. niger; Cpd 4 with voriconazole,0.5
same,minimum Compound 4 concentration at which Compound 4 alone inhibited growth (number in brackets),A. niger; ITR checkerboard,4.0 µg/mL
same,minimum Compound 4 concentration at which Compound 4 alone inhibited growth (number in brackets),A. niger; VOR checkerboard,2.0 µg/mL
same,Conc. Cpd 4 for 4-fold decrease,"C. glabrata [3]; 4-fold reduction of FLU MIC, C. glabrata clinical isolates",0.5 µg/mL
same,Conc. Cpd 4 for 4-fold decrease,"C. glabrata [3]; 4-fold reduction of VOR MIC, C. glabrata clinical isolates",0.5 µg/mL
same,FLU/Cpd 4 FIC,"C. glabrata [3]; Cpd 4 with fluconazole, C. glabrata clinical isolates",0.5
same,VOR/Cpd 4 FIC interpretation,"C. glabrata [3]; Cpd 4 with voriconazole, C. glabrata clinical isolates",(S) (S = synergy)
same,minimum Compound 4 concentration at which Compound 4 alone inhibited growth (number in brackets),"C. glabrata [3]; FLU checkerboard, C. glabrata clinical isolates",0.5 µg/mL
same,minimum Compound 4 concentration at which Compound 4 alone inhibited growth (number in brackets),"C. glabrata [3]; VOR checkerboard, C. glabrata clinical isolates",0.5 µg/mL
same,Compound 4 concentration for 4-fold reduction in azole MIC,C. glabrata [3]; all 14 C. glabrata clinical isolates (9 FLU-R),< 0.5 µg/mL
same,HDAC inhibition IC50,HDAC [4],>20 (20%) μg/ml
same,"HDAC inhibition, per cent in parentheses beside IC50 >20",HDAC [4]; concentration not given,>20 (20%)
same,Synergy with Cpd 4 (strains showing synergy/total strains tested) Itraconazole,Histoplasma,0/3
same,Synergy with Cpd 4 (strains showing synergy/total strains tested) Voriconazole,Histoplasma,0/3
same,MIC,Histoplasma; read-out: Cpd 4 MIC,1 to 2 µg/mL
